Structures are written as SMILES. Where two headings read alike, the source gives them in different places. *1 amine or outer side, *2 acyl side, *3 side chain or, on linkers, in order; H or OH if unused. Where a SMILES comes first, the peptide text is derived from it. Bridges are numbered along the chain shown (N, C = ends). [ ]: non-standard residue; d: D form. The star is where a group is joined. ξ: configuration not given here. X10 = O=C(O)CN1CCN(CC(=O)O)CCN(CC(=O)NC2CCC(CC(=O)*)CC2)CCN(CC(=O)O)CC1; Ala(piperidin-4-yl) = O=C([C@H](CC1CCN([*:3])CC1)N[*:1])[*:2]; DOTA = O=C(O)CN1CCN(CC(=O)O)CCN(CC(=O)*)CCN(CC(=O)O)CC1; X2 = O=C(Cc1ccc(I)cc1)NCCOCCOCCOCCOCCOCCOCCOCCOCC(=O)*; Trp(7-Me) = Cc1cccc2c(C[C@H](N)C(=O)O)c[nH]c12; Trp(7-aza) = N[C@@H](Cc1c[nH]c2ncccc12)C(=O)O; 2Nal = N[C@@H](Cc1ccc2ccccc2c1)C(=O)O; NMetBuAla = CN[C@@H](CC(C)(C)C)C(=O)O; NMeH = CN[C@@H](Cc1c[nH]cn1)C(=O)O; tBuAla = CC(C)(C)C[C@H](N)C(=O)O; Chg = N[C@H](C(=O)O)C1CCCCC1; NMeNle = CCCC[C@H](NC)C(=O)O; Tle = CC(C)(C)[C@H](N)C(=O)O; Dap = NC[C@H](N)C(=O)O; ξN = NC(=O)CC(N)C(=O)O; CH2 = C([*:1])[*:2] A value given as a limit tells only on which side of the number the result lay.

This assay deals with T1, DLL3 (Homo sapiens, UniProt Q9NYJ7).
T1 sequence (Q9NYJ7 27-618): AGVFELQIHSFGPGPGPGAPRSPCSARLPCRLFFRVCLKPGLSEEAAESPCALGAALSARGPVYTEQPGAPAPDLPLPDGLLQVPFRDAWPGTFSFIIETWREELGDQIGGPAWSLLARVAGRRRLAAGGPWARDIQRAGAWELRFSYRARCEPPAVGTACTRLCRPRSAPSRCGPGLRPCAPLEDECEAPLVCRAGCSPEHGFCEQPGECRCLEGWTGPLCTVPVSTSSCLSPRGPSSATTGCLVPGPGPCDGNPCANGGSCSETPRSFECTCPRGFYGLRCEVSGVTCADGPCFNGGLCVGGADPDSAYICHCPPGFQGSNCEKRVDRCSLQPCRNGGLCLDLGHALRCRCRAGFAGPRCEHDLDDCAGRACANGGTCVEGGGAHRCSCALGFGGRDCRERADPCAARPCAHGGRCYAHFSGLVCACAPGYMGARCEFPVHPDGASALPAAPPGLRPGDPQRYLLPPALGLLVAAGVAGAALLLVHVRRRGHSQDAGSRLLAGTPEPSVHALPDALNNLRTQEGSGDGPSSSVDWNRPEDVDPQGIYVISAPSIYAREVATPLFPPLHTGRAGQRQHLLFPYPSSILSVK
Briefly: SPR KD, biotinylated human DLL3 on streptavidin chip (Table 8). Also noted: biotin (biotinylated). Particulars: biotinylated human DLL3 on streptavidin sensor chip, 25° C., 1:1 binding model. An excerpt: Biotinylated target ligand human DLL3 was immobilized on a streptavidin sensor chip. A reference surface was set up for nonspecific binding and refractive index changes. […] Sensorgram curves were fitted with 1:1 binding model, and affinity and kinetic parameters were obtained using Biacore Insight evaluation 4.0. software.

Regarding `CCCC[C@@H](C(=O)N[C@H]1CSCSC[C@@H](C(=O)N[C@@H](Cc2c[nH]c3ccccc23)C(=O)N2CCC[C@H]2C(N)=O)NC(=O)[C@H](CC(=O)O)NC(=O)[C@H](CCCCNC(=O)CN2CCN(CC(=O)O)CCN(CC(=O)O)CCN(CC(=O)O)CC2)NC(=O)[C@H](Cc2ccc3ccccc3c2)NC(=O)[C@H](CC(N)=O)NC(=O)[C@H](CC2CCNCC2)NC1=O)N(C)C(=O)[C@@H](NC(=O)[C@H](Cc1c[nH]c2c(C)cccc12)NC(C)=O)[C@@H](C)O` [compound 431, Ac-(7Me-Trp)-T-(NMe-Nle)-C(1)-[3-(4-piperidinyl)-Ala]-N-(2Nal)-Lys(DOTA)-D-C(1)-W-P-CONH2] (Ac-[Trp(7-Me)]T[NMeNle]C[Ala(piperidin-4-yl)]N[2Nal]K(DOTA)DCWP-NH2; linker 4-10 via CH2), where the note is “read-out: SPR KD”, the equilibrium dissociation constant (Kd) was below 1 nM.
With `CC[C@H](C)[C@H](NC(=O)[C@@H](NC(=O)[C@H](Cc1c[nH]c2ccccc12)NC(C)=O)[C@@H](C)O)C(=O)N[C@H]1CSSC[C@@H](C(=O)N[C@@H](Cc2c[nH]c3ccccc23)C(=O)N2CCC[C@H]2C(N)=O)NC(=O)[C@H](CC(=O)O)NC(=O)[C@H](Cc2cnc[nH]2)N(C)C(=O)[C@H](Cc2c[nH]c3ccccc23)NC(=O)[C@H](CC(N)=O)NC(=O)[C@H](CC(N)=O)NC1=O` [compound 387, Ac-W-T-I-C(3)-N-N-W-(NmeH)-D-C(3)-W-P-CONH2] (Ac-WTICNNW[NMeH]DCWP-NH2; disulfide 4-10), the dissociation constant (Kd) (read-out: SPR KD) lay within 10 to 100 nM.
Take `CC(=O)N[C@H](Cc1c[nH]c2ccccc12)C(=O)N[C@@H](C(=O)N[C@@H](CC(C)(C)C)C(=O)N[C@H]1CSCSC[C@H](C(=O)N[C@@H](Cc2c[nH]c3ccccc23)C(=O)N2CCC[C@H]2C(N)=O)NC(=O)[C@H](CC(=O)O)NC(=O)[C@H](CCCCNC(=O)CN2CCN(CC(=O)O)CCN(CC(=O)O)CCN(CC(=O)O)CC2)NC(=O)[C@H](Cc2ccc3ccccc3c2)NC(=O)[C@H](CC(N)=O)NC(=O)[C@H](CC(N)=O)NC1=O)[C@H](C)O` [compound 424, Ac-W-T-(t-Bu-Ala)-C(1)-N-N-(2Nal)-Lys(DOTA)-D-[D-Cys(1)]-W-P-CONH2] (Ac-[dW][dT][tBuAla]CNN[2Nal]K(DOTA)D[dC]WP-NH2; linker 4-10 via CH2): for the setting “read-out: SPR KD”, the Kd is below 1 nM.
For `CC(=O)N[C@@H](Cc1c[nH]c2ccccc12)C(=O)N[C@H](C(=O)N[C@H](C(=O)N[C@H]1CSSC[C@@H](C(=O)N[C@@H](Cc2c[nH]c3ccccc23)C(=O)N2CCC[C@H]2C(N)=O)NC(=O)[C@H](CC(=O)O)NC(=O)[C@H](Cc2cnc[nH]2)NC(=O)[C@H](Cc2c[nH]c3ccccc23)NC(=O)[C@H](CC(N)=O)NC(=O)[C@H](CC(N)=O)NC1=O)C(C)(C)C)[C@@H](C)O` [compound 336, Ac-W-T-(Tbg)-C(3)-N-N-W-H-D-C(3)-W-P-CONH2] (Ac-WT[Tle]CNNWHDCWP-NH2; disulfide 4-10), for the setting “read-out: SPR KD”, the Kd lay within 1 to 10 nM.
Turning to `CC(=O)N[C@@H](Cc1c[nH]c2ccccc12)C(=O)N[C@H](C(=O)N(C)[C@@H](CC(C)(C)C)C(=O)N[C@H]1CSCSC[C@@H](C(=O)N[C@@H](Cc2c[nH]c3ccccc23)C(=O)N2CCC[C@H]2C(N)=O)NC(=O)[C@H](CC(=O)O)NC(=O)[C@H](CCCCNC(=O)CN2CCN(CC(=O)O)CCN(CC(=O)O)CCN(CC(=O)O)CC2)NC(=O)[C@H](Cc2ccc3ccccc3c2)NC(=O)[C@H](CC(N)=O)NC(=O)[C@H](CC2CCNCC2)NC1=O)[C@@H](C)O` [compound 153] (Ac-WT[NMetBuAla]C[Ala(piperidin-4-yl)]N[2Nal]K(DOTA)DCWP-NH2; linker 4-10 via CH2), the Kd (read-out: SPR KD) is below 1 nM.
Take `CC(=O)N[C@@H](Cc1c[nH]c2ccccc12)C(=O)N[C@H](C(=O)N[C@@H](CC(C)(C)C)C(=O)N[C@H]1CSCSC[C@@H](C(=O)N[C@@H](Cc2c[nH]c3ccccc23)C(=O)N2CCC[C@H]2C(N)=O)NC(=O)[C@H](CC(=O)O)NC(=O)[C@H](CCCCNC(=O)CN2CCN(CC(=O)O)CCN(CC(=O)O)CCN(CC(=O)O)CC2)NC(=O)[C@H](Cc2ccc3ccccc3c2)NC(=O)[C@H](CC(N)=O)NC(=O)[C@H](CC2CCNCC2)NC1=O)[C@@H](C)O` [compound 94] (Ac-WT[tBuAla]C[Ala(piperidin-4-yl)]N[2Nal]K(DOTA)DCWP-NH2; linker 4-10 via CH2): the dissociation constant (Kd) (read-out: SPR KD) was below 1 nM.
Regarding `CC[C@H](C)[C@H](NC(=O)[C@@H](NC(=O)[C@H](Cc1c[nH]c2ccccc12)NC(C)=O)[C@@H](C)O)C(=O)N[C@H]1CC(=O)NC[C@@H](C(=O)N[C@@H](Cc2c[nH]c3ccccc23)C(=O)N2CCC[C@H]2C(N)=O)NC(=O)[C@H](CC(=O)O)NC(=O)[C@H](Cc2c[nH]cn2)NC(=O)[C@H](Cc2c[nH]c3ccccc23)NC(=O)[C@H](CC(N)=O)NC(=O)[C@H](CC(N)=O)NC1=O` [compound 120, Ac-W-T-I-(L-Asp)*-N-N-W-H-D-(L-Dap)*-W-P-CONH2 (* denotes lactam between side chains between L-Asp and L-Dap)] (Ac-WTIDNNWHD[Dap]WP-NH2; lactam 4-10), the Kd (read-out: SPR KD) lay within 100 to 300 nM.
Take `CC[C@H](C)[C@H](NC(=O)[C@@H](NC(=O)[C@H](Cc1c[nH]c2ccccc12)NC(C)=O)[C@@H](C)O)C(=O)N[C@H]1CSSC[C@@H](C(=O)N[C@@H](Cc2c[nH]c3ccccc23)C(=O)N2CCC[C@H]2C(N)=O)NC(=O)[C@H](CC(=O)O)NC(=O)[C@H](Cc2c[nH]cn2)NC(=O)[C@H](Cc2c[nH]c3ncccc23)NC(=O)[C@H](CC(N)=O)NC(=O)[C@H](CC(N)=O)NC1=O` [compound 33, Ac-W-T-I-C(3)-N-N-(7Aza-W)-H-D-C(3)-W-P-CONH2] (Ac-WTICNN[Trp(7-aza)]HDCWP-NH2; disulfide 4-10): the Kd (read-out: SPR KD) lay within 10 to 100 nM.
As for `CC(=O)N[C@@H](Cc1c[nH]c2ccccc12)C(=O)N[C@H](C(=O)N[C@H](C(=O)N[C@H]1CSCSC[C@@H](C(=O)N[C@@H](Cc2c[nH]c3ccccc23)C(=O)N2CCC[C@H]2C(N)=O)NC(=O)[C@H](CC(=O)O)NC(=O)[C@H](CCCCNC(=O)CC2CCC(NC(=O)CN3CCN(CC(=O)O)CCN(CC(=O)O)CCN(CC(=O)O)CC3)CC2)NC(=O)[C@H](Cc2ccc3ccccc3c2)NC(=O)C(CC(N)=O)NC(=O)[C@H](CC2CCNCC2)NC1=O)C1CCCCC1)[C@@H](C)O` (stereo partly drawn) [compound 432, Ac-W-T-(Chg)-C(1)-[3-(4-piperidinyl)-Ala]-N-(2Nal)-Lys(Chx-DOTA)-D-C(1)-W-P-CONH2] (Ac-WT[Chg]C[Ala(piperidin-4-yl)][ξN][2Nal]K(X10)DCWP-NH2; linker 4-10 via CH2), where the note is “read-out: SPR KD”, the equilibrium dissociation constant (Kd) is below 1 nM.
As for `CC(=O)N[C@@H](Cc1c[nH]c2ccccc12)C(=O)N[C@H](C(=O)N[C@H](C(=O)N[C@H]1CSSC[C@@H](C(=O)N[C@@H](Cc2c[nH]c3ccccc23)C(=O)N2CCC[C@H]2C(=O)N[C@H](CCCCNC(=O)COCCOCCOCCOCCOCCOCCOCCOCCNC(=O)Cc2ccc(I)cc2)C(N)=O)NC(=O)[C@H](CC(=O)O)NC(=O)[C@H](CCCCNC(=O)CN2CCN(CC(=O)O)CCN(CC(=O)O)CCN(CC(=O)O)CC2)NC(=O)[C@H](Cc2ccc3ccccc3c2)NC(=O)[C@H](CC(N)=O)NC(=O)[C@H](CC2CCNCC2)NC1=O)C1CCCCC1)[C@@H](C)O` [compound 420] (Ac-WT[Chg]C[Ala(piperidin-4-yl)]N[2Nal]K(DOTA)DCWP[dK](X2)-NH2; disulfide 4-10), the equilibrium dissociation constant (Kd) (SPR KD) is below 1 nM.

The values are drawn from patent US20250049970A1, “DLL3 TARGETING PEPTIDES AND CONSTRUCTS THEREOF” (MARIANA ONCOLOGY INC., priority 2023, published 2025).
